We go through 2 compounds from patent publication EP4491625A1, “BENZO BICYCLIC COMPOUND, AND PREPARATION METHOD AND APPLICATION THEREOF” (Guangzhou Unirise Pharmaceutical Co., Ltd., priority 2022, dated 2023).

Like-named read-outs stand apart in the source and are kept apart here.

The nature of data set [1]: Pharmacokinetic study in rats (intravenous or gavage, plasma LC-MS/MS). The data set is classed as in vivo. The settings on record: SD rats; for F: po 5 mg/kg versus iv 1 mg/kg; for AUC(0-t) / Cmax / Tmax / half-life: rat, plasma. The procedure:
SD rats: male, 6-8 weeks old, weighing 200-300 g, purchased from SPF ( Beijing ) Biotechnology Co.,Ltd..
At each PK sampling point, 200 µL of whole blood was collected into EDTA-K2 anticoagulant blood tubes and centrifuged at 4°C for 30 min to obtain plasma. Whole blood samples were placed on wet ice before centrifugation. All collected plasma samples were stored on dry ice or frozen until analyzed.
Approximately1 mg of the compound of the present application was weighed and dissolved in DMSO, vortexed and sonicated to obtain a 1 mg/mL standard stock solution. The standard stock solution was diluted with 50% aqueous acetonitrile to obtain standard working solutions with concentrations of 5, 10, 20, 50, 100, 500, 1000, 5000 and 10000 ng/mL. QC working solutions with concentrations of 10, 20, 500 and 8000 ng/mL were prepared using the same dilution method. These QC samples were prepared on the day of analysis in the same way as the standard curve samples.5 µL of standard working solution with concentrations of (5, 10, 20, 50, 100, 500, 1000, 5000 and 10000 ng/mL) was added to 50 µL of blank SD rat plasma to obtain a total volume of 55 µL with concentrations of 0.5-1000 ng/mL (0.5, 1, 2, 5, 10, 50, 100, 500, and 1000 ng/mL) of standard curve samples. QC samples with concentrations of (1 ng/ml (low-1) and 2 ng/ml (low-2), 50 ng/ml (medium), 800 ng/ml (high)) were configured separately.
55 µL of standard samples, 55 µL of QC samples or 55 µL of unknown samples (50 µL of plasma samples added to 5 µL of 50% aqueous acetonitrile) were added to 200 µL of acetonitrile containing an internal standard (dexamethasone) to precipitate proteins. […] The supernatant was taken and diluted 3-fold with water, and 5 µL of the supernatant dilution was injected into the LC-MS/MS system for quantitative analysis under the following assay conditions:
Column: HALO 90A Phenly-Hexyl, 2µm 2.1×30mm.
Pharmacokinetic parameters were calculated by the […] of Phoenix TM Winnonlin® 8.3 software.

A further data set concerns the target T1, GLP-1 receptor (Homo sapiens, UniProt P43220).
T1 construct: host or cells: HEK293
In words: cAMP detection assay of agonistic effect in HEK293 cells with high expression of hGLP-1R. The data set is classed as cell-based. The procedure:
The cells were constructed by Wuxi New Drug Development Co., Ltd. Shanghai.
The compound was prepared with DMSO to a working concentration of 100µM or 10µM. 10 points of 4-fold dilution (maximum concentration of 1000nM or 100nM after dilution) was done with Bravo V11.
The compound to be tested was diluted 4 times with Bravo to obtain 10 concentrations and the initial concentration was 100µM by Bravo V11. The initial concentration was 100µM.

The nature of data set [2]: Human liver microsome stability test. The data set is classed as in vitro ADME. To be noted: pH 7.4; human liver microsomes 0.5 mg/mL, 1 µM compound, NADPH, 37 °C. The procedure:
Preparation of compound working solutions: A high-concentration stock solution of the subject and control drug verapamil powder was prepared in DMSO and diluted to a working solution of 100 µM with DMSO before use, with a final concentration of 1 µM of the subject and verapamil.
Preparation of phosphate buffer salt (100 mM, pH 7.4): 7.098 g of disodium hydrogen phosphate was weighed and dissolved ultrasonically in 500 mL of purified water as solution A. 3.400 g of potassium dihydrogen phosphate was weighed and dissolved ultrasonically in 250 mL of purified water as solution B. Solution B was added to the inside of solution A to give a pH of 7.4.
Preparation of 10 mM NADPH: An appropriate amount of NADPH is now weighed before the experiment and a working solution of 10 mM concentration is prepared from phosphate solution.
Preparation of the incubation system: The incubation system was prepared according to the following table, and the incubation system was preheated in a water bath at 37 °C for 10 minutes before use.
Transfer 25 µL of NADPH or phosphate buffer salt to the above incubation system and add 2.5 µL of 100 µM subject or verapamil. For NADPH-added samples, double-parallel preparations were performed; for NADPH-negative samples, single-parallel preparations were performed.
30 µL of the suspension was taken at 0.5, 5, 15, 30, and 60 min, respectively. The reaction was terminated by adding 150 µL of acetonitrile containing the internal standard and vortexed for 10 min.
This was followed by centrifugation at 3220 g for 40 min for protein precipitation. 100 µL of supernatant was transferred to the injection plate and mixed with 100 µL of pure water for UPLC-MS/MS analysis.
All data calculations were performed by Microsoft Excel software. Peak areas were detected by extracted ion mapping. The in vitro half-life (t1/2) of the parent drug was assayed by fitting the natural logarithm of the percentage elimination of the parent drug linearly with time.
The in vitro half-life (t1/2) was calculated by slope: t1/2 = 0.693 / k
The in vitro clearance (in µL/min/mg) was calculated using the following formula: CLint =0.693/ t1/2 * (Incubation system volume (μL) / protein content (mg)) [formula]
Table 3 the experimental results of human liver microsome of the compounds provided in some examples of the present invention

T1 sequence (P43220 24-463): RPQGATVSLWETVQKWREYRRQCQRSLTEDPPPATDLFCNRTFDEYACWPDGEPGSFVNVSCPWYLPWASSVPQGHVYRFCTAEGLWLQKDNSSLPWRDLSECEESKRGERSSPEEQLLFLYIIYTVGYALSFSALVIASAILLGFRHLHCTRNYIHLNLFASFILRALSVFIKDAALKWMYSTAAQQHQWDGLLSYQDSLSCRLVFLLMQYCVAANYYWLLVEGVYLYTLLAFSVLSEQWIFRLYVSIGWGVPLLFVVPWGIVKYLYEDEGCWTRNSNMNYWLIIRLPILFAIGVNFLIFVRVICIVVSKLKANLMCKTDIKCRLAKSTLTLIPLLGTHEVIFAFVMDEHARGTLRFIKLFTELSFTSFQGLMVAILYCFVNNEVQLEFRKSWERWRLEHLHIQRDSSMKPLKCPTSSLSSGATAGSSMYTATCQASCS

In data set [1], `O=C(O)c1ccc2nc(CC3CC=C(c4cccc(OCc5ccc(Cl)c6cc(F)oc56)n4)CC3)n(C[C@@H]3CCO3)c2c1` (stereo partly drawn) [Compound 2, 2-((4-(6-((4-chloro-2-fluorobenzofuran-7-yl)methoxy)pyridin-2-yl)cyclohex-3-en-1-yl)methyl)-1-(((S)-oxetan-2-yl)methyl)-1H-benzo[d]imidazole-6-carboxylic acid] yielded an F of 31.8%. For the same compound, in data set [1] (male, iv, 1 mg/kg), the AUC(0-t) turned out to be 1240 ng·h/mL, the Cmax stood at 2300 ng/mL, the Tmax was determined as 0.083 h and the half-life is 1.15 h. Further, in data set [1] (male, po, 5 mg/kg), the AUC(0-t) amounted to 1960 ng·h/mL, the peak level (Cmax) was 754 ng/mL, the Tmax turned out to be 1 h and the half-life was 2.56 h. Further, the EC50 on GLP-1 receptor (agonistic effect, cAMP, HEK293 cells with high expression of hGLP-1R, read-out: EC50) came to 0.23 nM. The same compound registered a half-life at 1 µM in data set [2] of 2.27 h.
In data set [1], `O=C(O)c1ccc2nc(C[C@H]3CC[C@H](c4cccc(OCc5ccc(Cl)c6cc(F)oc56)n4)CC3)n(C[C@@H]3CCO3)c2c1` [Compound 27B, 2-(((1r,4S)-4-(6-((4-chloro-2-fluorobenzofuran-7-yl)methoxy)pyridin-2-yl)cyclohexyl)methyl)-1-(((S)-oxetan-2-yl)methyl)-1H-benzo[d]imidazole-6-carboxylic acid] came in with an F of 44.4%. Besides, in data set [1] (iv, 1 mg/kg), the AUC(0-t) was 1680 ng·h/mL, the concentration peaked (Cmax) at 2830 ng/mL, the Tmax stood at 0.083 h and the half-life was 0.707 h. For the same compound, in data set [1] (po, 5 mg/kg), the area under the curve AUC(0-t) is 3670 ng·h/mL, the highest level (Cmax) was 1160 ng/mL, the Tmax was 0.833 h and the half-life is 4.18 h. For the same compound, the EC50 on GLP-1 receptor was determined as 0.17 nM. In addition, the half-life at 1 µM in data set [2] was 1.7 h.
